From publication PMC5342759, “An inhibitor of cholesterol absorption displays anti-myeloma activity by targeting the JAK2-STAT3 signaling pathway” (Oncotarget, 2016)

Legend:
Assay in all cases: HotSpot radiometric kinase assay, purified recombinant human kinase, 10-dose IC50
Type in all cases: biochemical
JAK3 = target: T1, JAK3 (Homo sapiens, UniProt P52333)
T1 sequence (P52333 1-1124): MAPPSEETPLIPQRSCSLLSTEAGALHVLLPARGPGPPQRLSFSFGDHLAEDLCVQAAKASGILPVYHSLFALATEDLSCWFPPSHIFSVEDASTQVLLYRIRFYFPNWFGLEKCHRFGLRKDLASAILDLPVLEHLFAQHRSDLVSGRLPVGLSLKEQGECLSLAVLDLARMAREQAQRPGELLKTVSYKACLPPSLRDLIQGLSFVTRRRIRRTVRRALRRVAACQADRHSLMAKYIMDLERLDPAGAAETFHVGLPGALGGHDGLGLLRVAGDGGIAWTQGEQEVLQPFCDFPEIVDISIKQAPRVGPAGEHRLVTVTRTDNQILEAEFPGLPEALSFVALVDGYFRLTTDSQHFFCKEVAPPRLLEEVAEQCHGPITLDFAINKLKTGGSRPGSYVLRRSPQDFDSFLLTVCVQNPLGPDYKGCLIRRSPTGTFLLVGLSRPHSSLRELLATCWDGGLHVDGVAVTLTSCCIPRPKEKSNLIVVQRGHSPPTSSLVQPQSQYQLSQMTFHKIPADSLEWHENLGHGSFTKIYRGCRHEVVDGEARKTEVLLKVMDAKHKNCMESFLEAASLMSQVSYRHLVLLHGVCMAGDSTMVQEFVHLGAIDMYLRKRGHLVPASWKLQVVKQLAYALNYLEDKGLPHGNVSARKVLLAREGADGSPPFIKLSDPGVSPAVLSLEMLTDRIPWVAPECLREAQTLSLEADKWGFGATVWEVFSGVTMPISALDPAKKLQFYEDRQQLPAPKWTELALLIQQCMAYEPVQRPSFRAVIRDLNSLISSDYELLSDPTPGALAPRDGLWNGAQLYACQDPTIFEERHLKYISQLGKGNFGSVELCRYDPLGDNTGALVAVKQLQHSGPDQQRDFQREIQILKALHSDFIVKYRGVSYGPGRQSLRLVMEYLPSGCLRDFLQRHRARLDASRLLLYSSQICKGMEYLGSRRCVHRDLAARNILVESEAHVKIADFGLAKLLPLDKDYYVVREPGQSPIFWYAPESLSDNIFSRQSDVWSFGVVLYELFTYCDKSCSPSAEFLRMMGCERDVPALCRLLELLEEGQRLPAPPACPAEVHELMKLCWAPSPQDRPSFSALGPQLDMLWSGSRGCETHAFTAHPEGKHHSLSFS

TYK2 = TYK2 (Homo sapiens, UniProt P29597)
JAK2 = JAK2 (Homo sapiens, UniProt O60674)
JAK1 = JAK1 (Homo sapiens, UniProt P23458)
Sequence of JAK1 (P23458 whole entry): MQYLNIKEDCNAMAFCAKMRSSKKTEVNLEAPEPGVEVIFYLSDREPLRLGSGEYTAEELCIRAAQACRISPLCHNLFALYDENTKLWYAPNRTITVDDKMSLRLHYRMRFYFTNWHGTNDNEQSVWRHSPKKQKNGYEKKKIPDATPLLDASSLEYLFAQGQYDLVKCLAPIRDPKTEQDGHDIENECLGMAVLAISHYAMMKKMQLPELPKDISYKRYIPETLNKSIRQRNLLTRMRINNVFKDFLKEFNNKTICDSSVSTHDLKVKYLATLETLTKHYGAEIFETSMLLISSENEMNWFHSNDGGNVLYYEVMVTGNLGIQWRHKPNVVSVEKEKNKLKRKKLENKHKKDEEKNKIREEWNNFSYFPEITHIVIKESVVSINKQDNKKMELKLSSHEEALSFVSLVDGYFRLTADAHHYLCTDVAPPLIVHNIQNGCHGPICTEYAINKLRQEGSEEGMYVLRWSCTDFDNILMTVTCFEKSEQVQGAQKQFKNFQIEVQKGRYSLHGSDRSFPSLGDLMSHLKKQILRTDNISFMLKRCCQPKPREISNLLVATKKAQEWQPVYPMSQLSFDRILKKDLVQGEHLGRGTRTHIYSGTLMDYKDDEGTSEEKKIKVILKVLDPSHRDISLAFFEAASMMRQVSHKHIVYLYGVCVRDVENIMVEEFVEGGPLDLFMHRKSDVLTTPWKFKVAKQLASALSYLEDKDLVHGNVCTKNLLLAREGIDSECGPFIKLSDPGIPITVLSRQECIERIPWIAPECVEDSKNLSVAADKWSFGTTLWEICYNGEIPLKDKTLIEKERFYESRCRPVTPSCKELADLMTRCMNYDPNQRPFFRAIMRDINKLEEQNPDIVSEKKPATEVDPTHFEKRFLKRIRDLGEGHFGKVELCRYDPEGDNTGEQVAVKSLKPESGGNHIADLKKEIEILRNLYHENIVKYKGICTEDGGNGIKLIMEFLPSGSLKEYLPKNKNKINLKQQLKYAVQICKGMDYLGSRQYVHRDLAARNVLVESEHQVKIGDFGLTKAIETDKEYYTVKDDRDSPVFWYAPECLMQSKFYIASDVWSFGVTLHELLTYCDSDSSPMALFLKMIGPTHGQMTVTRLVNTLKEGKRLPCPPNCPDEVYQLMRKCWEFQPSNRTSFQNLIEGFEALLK

Sequence of JAK2 (O60674 whole entry): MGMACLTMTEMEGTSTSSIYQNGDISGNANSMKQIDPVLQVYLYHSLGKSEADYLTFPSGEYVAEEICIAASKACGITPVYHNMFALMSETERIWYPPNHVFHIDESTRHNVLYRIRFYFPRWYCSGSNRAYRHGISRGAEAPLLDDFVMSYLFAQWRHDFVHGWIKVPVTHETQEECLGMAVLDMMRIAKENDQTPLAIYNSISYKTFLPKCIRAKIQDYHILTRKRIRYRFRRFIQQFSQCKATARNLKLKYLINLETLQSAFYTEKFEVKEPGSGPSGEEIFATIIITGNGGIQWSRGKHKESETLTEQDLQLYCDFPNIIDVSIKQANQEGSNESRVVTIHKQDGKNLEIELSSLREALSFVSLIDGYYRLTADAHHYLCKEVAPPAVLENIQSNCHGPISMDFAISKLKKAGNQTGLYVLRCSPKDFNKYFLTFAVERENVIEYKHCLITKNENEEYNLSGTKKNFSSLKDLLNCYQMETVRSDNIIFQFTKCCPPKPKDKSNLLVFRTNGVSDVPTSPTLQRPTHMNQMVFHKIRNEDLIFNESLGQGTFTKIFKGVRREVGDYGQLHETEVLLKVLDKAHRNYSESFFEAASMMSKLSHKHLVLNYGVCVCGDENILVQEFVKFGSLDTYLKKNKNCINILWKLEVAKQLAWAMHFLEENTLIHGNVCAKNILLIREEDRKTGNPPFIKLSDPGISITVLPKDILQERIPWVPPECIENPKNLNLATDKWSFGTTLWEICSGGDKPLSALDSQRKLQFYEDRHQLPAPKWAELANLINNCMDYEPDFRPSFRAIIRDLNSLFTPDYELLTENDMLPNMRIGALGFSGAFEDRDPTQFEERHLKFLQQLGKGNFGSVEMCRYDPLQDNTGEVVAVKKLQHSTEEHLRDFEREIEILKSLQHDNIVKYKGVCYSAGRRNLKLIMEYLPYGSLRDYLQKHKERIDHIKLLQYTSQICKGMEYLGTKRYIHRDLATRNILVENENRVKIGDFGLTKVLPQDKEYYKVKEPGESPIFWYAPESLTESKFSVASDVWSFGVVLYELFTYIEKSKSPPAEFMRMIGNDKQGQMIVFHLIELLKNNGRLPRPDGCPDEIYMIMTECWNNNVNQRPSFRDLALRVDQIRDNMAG
Sequence of TYK2 (P29597 whole entry): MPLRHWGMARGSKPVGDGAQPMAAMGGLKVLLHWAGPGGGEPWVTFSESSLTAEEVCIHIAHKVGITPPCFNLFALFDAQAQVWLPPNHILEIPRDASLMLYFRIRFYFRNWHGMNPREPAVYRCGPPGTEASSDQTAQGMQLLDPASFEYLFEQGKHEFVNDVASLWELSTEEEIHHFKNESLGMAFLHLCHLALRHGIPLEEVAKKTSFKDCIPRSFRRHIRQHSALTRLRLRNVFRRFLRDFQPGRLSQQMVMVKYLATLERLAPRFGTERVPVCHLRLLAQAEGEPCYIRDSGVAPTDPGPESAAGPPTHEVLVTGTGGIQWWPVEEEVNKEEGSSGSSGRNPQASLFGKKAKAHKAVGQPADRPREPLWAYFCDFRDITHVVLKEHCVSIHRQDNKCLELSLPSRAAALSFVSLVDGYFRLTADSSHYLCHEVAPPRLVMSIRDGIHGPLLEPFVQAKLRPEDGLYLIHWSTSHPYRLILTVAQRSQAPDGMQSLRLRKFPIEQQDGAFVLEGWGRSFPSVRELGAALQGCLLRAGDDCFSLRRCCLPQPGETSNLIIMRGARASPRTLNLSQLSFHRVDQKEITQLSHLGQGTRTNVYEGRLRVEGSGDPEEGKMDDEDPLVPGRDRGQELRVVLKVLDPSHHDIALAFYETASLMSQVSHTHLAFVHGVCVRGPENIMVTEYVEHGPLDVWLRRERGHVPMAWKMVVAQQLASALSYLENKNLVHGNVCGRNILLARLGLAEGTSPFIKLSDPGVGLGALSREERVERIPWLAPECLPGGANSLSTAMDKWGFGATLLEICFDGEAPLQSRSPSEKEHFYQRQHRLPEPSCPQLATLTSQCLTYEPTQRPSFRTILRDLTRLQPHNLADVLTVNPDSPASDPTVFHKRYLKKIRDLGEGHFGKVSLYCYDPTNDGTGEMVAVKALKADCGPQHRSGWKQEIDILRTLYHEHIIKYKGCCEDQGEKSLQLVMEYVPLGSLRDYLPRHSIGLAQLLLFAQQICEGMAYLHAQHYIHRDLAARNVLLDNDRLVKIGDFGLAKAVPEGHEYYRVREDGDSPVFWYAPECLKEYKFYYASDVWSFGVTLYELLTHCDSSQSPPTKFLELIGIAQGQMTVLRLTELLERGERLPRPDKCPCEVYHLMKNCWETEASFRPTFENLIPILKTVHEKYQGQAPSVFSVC

Compound: N#C/C(=N\Nc1ccc(C(F)(F)F)cc1)S(=O)(=O)c1cccs1 [SC09]
- IC50 (JAK3): 139 µM
- IC50 (TYK2): 111 µM
- IC50 (JAK2): 8.88 µM
- IC50 (JAK1): 153 µM
